The source of these data is publication PMC9917406, “Synthesis, Biological and In Silico Studies of Griseofulvin and Usnic Acid Sulfonamide Derivatives as Fungal, Bacterial and Human Carbonic Anhydrase Inhibitors” (International Journal of Molecular Sciences, 2023).

What all share (format): biochemical
One assay deals with hCA I (Homo sapiens, UniProt P00915). Kind of assay: stopped-flow CO2 hydrase assay, hCA I. To be noted: mean from 3 different assays, errors ±5–10%.
The target in a further assay is T1, SmuCA (Streptococcus mutans, UniProt Q8DVY1).
T1 sequence (Q8DVY1 1-166): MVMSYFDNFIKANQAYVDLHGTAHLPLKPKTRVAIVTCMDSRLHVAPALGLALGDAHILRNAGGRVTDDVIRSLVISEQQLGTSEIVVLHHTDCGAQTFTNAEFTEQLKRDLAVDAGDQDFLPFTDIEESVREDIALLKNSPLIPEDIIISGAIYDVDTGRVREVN
Kind of assay: stopped-flow CO2 hydrase assay, SmuCA. To be noted: mean from 3 different assays, errors ±5–10%.

A further assay concerns the target hCA IX (Homo sapiens, UniProt Q16790). Nature of the assay: stopped-flow CO2 hydrase assay, hCA IX. To be noted: mean from 3 different assays, errors ±5–10%; read-out: KI hCAIX.
The target in another assay is T2, PgiCAγ (Porphyromonas gingivalis, UniProt Q7MV79).
T2 sequence (Q7MV79 1-192): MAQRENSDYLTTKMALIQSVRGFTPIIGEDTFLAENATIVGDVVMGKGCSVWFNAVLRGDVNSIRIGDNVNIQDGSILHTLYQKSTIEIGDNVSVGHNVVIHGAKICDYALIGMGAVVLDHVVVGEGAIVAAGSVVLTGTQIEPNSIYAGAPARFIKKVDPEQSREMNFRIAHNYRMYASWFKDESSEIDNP
Kind of assay: stopped-flow CO2 hydrase assay, PgiCAγ. To be noted: mean from 3 different assays, errors ±5–10%.

Another assay has as its target T3, PgiCAβ (Porphyromonas gingivalis, UniProt B2RL07).
T3 sequence (B2RL07 19-242): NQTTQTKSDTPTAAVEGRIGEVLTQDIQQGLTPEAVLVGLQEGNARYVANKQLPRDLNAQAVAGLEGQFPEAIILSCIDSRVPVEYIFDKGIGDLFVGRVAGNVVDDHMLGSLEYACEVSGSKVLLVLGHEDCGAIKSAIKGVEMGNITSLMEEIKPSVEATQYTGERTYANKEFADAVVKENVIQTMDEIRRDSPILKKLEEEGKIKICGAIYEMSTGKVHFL
Nature of the assay: stopped-flow CO2 hydrase assay, PgiCAβ. To be noted: mean from 3 different assays, errors ±5–10%.

Another assay deals with BpsCAγ (Burkholderia pseudomallei, UniProt Q63SQ4). To be noted: read-out: KI BpsCAγ.
BpsCAγ, sequence (Q63SQ4 1-174): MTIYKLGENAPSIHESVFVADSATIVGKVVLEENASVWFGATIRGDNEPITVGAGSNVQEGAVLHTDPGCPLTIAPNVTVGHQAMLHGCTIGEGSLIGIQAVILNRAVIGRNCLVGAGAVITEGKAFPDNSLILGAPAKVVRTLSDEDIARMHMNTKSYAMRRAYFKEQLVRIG
The next assay concerns the target T4, MgCA (Malassezia globosa, UniProt A8Q1N3).
T4 sequence (A8Q1N3 1-241): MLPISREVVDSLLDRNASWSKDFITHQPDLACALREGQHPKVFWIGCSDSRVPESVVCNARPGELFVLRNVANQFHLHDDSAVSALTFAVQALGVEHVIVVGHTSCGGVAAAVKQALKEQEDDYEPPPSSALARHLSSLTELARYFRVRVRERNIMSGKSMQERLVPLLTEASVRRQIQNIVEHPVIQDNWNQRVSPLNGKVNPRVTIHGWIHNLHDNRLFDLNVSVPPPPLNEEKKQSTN
Kind of assay: stopped-flow CO2 hydrase assay, MgCA. To be noted: mean from 3 different assays, errors ±5–10%.

In the next assay the target is CpsCAγ (Colwellia psychrerythraea, UniProt Q48AV3). Kind of assay: biochemical.
CpsCAγ, sequence (Q48AV3 entry or part of it): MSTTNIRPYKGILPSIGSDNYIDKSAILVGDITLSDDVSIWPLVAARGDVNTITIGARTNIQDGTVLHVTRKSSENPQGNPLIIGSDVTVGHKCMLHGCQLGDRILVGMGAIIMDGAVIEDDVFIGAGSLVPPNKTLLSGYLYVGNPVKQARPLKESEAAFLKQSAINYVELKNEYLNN
For the next assay, the target named is hCA II (Homo sapiens, UniProt P00918). Kind of assay: stopped-flow CO2 hydrase assay, hCA II.

hCA I, sequence (P00915 whole entry): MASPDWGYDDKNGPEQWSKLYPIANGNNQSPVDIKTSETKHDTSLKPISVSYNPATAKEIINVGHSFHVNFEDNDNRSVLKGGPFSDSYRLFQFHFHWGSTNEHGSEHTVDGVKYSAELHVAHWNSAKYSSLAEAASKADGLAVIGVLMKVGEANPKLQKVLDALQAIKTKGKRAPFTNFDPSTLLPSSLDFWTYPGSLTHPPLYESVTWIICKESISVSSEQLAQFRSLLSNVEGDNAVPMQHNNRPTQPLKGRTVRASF

Usually Ki stands for a dissociation constant, usually derived from enzyme kinetics or from competition with a known ligand. In the case of `CC(=O)c1c(O)c(C)c(O)c2c1OC1=CC(=O)C(=C(C)Nc3ccc(S(N)(=O)=O)cc3O)C(=O)[C@@]12C` [Compound 4a, (R)-4-((1-(6-acetyl-7,9-dihydroxy-8,9b-dimethyl-1,3-dioxo-3,9b-dihydrodibenzo[b,d]furan-2(1H)-ylidene)ethyl)amino)-3-hydroxybenzenesulfonamide], the Ki on hCA I came to 370 nM; on SmuCA, 841 nM; on hCA IX, 66.9 nM; on PgiCAγ, 897 nM; on PgiCAβ it was 888 nM; on BpsCAγ, 473 nM. Moreover, the Ki at MgCA was determined as 3430 nM; at CpsCAγ, 723 nM; on hCA II (mean from 3 different assays, errors ±5–10%), 8.4 nM. Besides, the “selectivity index (SI) towards hCA I” value at hCA II (hCA II inhibition relative to hCA I) is recorded as 43.9. Also, the “selectivity index (SI) towards hCA IX” value on hCA II (hCA II inhibition relative to hCA IX) is reported as 7.96.
